Each compound was assayed against T1, BAF/3 cells expressing human CXCR2 (Homo sapiens, UniProt P25025) (assay: Chemotaxis assay 1, transfected cell line: inhibition of CXCL1 induced chemotaxis). Conditions: inhibition of CXCL1 (3 nM) induced chemotaxis of BAF/3 cells expressing human CXCR2; 4 hours incubation.
T1 construct: expressed in transfected cells; host or cells: BAF/3 cells
T1 sequence (P25025 1-360): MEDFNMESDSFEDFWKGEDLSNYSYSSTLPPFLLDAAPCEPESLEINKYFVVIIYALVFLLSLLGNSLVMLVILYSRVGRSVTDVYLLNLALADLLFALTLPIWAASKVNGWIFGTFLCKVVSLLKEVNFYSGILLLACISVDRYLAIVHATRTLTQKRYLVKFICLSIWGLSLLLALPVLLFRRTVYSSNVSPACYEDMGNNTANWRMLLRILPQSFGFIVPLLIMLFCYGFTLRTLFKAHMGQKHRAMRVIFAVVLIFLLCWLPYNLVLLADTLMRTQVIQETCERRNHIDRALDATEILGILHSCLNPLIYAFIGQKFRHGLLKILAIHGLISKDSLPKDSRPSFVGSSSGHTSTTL
Type: cell-based
Method: Chemotaxis assay 1, transfected cell line: This assay measures the inhibition of CXCL1 induced chemotaxis of BAF/3 cells expressing human CXCR2. For each assay point, 100 μL of a 3×10^6/mL cell suspension are incubated with 1 μL of test compound diluted in DMSO. The bottom wells of a chemotaxis plate (5 μm pore size, Neuroprobe) is filled with 305 μL of chemotaxis buffer (RPMI 1640 medium (phenol red free), containing 2% fetal calf serum) and 3 nM CXCL1. The 5 μm pore membrane is applied onto the chemotaxis plate and 80 μL of the cell suspension is cautiously pipetted onto the membrane. The lid is put on the chemotaxis plate and the plate is incubated for 4 hours in an incubator (37° C., 5% CO2). For quantification of migrated cells, the cell suspension and the lid are removed and 100 μL from the bottom chamber are transferred to an Opti plate 96 (Perkin Elmer). 100 μL of substrate solution (provided by Cell Titer Glo kit, Promega) are added. This method uses the measurement of ATP present in metabolically active cells. After 10 min incubation at room temperature the plate is measured at Luminoscan for quantification of ATP-dependent generation of oxyluciferin. IC50s of the tested compound are calculated by non-linear regression and using a sigmoidal dose-response curve as fitting algorithm (provided by GraphPadPrism). Determination of a bottom value is performed by quantification of migration of buffer treated cells, migrating towards buffer only. Determination of a top value is performed by quantification of migration of buffer treated cells, migrating towards CXCL1.

Row | SMILES | IC50 [µM]
1 | O=C(Nc1ccccc1Br)Nc1cccc(C(=O)N2CCN3CCCC3C2)c1O (centres unmarked) [Example 5] | 0.377
2 | CC[C@@H](Nc1c(Nc2cccc(C(=O)N3CCC4(CCCC4)CC3)c2O)c(=O)c1=O)c1ccccc1 [Example 37] | 0.026
3 | O=C(Nc1cccc(C(=O)N2CCC3(CCNC3=O)CC2)c1O)Nc1cccc(F)c1Cl [Example 4] | 0.034
4 | CC[C@@H](Nc1c(Nc2cccc(C(=O)N3CC4(COC4)C3)c2O)c(=O)c1=O)c1ccccc1 [Example 36] | 0.025
5 | O=C(c1cccc(Nc2c(Nc3ccccc3Br)c(=O)c2=O)c1O)N1CCN2CCCC2C1 (centres unmarked) [Example 22] | 0.0015
6 | O=C(Nc1cccc(C(=O)N2CCN3C(=O)CCC3C2)c1O)Nc1cccc(Cl)c1Cl (centres unmarked) [Example 13] | 0.047
7 | CC[C@@H](Nc1c(Nc2cccc(C(=O)N3CCC4C(=O)NCCC43)c2O)c(=O)c1=O)c1ccccc1 (some centres unmarked) [Example 41] | 0.066
8 | CCC(Nc1c(Nc2cccc(C(=O)N3CCC4(CCNC4=O)CC3)c2O)c(=O)c1=O)c1ccccc1 (centres unmarked) [Example 29] | 0.0041
9 | O=C(Nc1cccc(C(=O)N2CC(=O)N3CCCC3C2)c1O)Nc1cccc(F)c1Cl (centres unmarked) [Example 15] | 0.086
10 | CC[C@@H](Nc1c(Nc2cccc(C(=O)N3CCO[C@@H]4CNC[C@H]43)c2O)c(=O)c1=O)c1ccccc1 [Example 42] | 0.045
11 | O=C(Nc1ccccc1Br)Nc1cccc(C(=O)N2CCC3(CCNC3=O)CC2)c1O [Example 1] | 0.597
12 | CC[C@@H](Nc1c(Nc2cccc(C(=O)N3CCS(=O)(=O)C4(CCNC4=O)C3)c2O)c(=O)c1=O)c1ccccc1 (some centres unmarked) [Example 32] | 0.401
13 | O=C(c1cccc(Nc2c(Nc3cccc(F)c3Cl)c(=O)c2=O)c1O)N1CC2(COC2)C1 [Example 53] | 0.36
14 | CC[C@@H](Nc1c(Nc2cccc(C(=O)N3CCN4CCC[C@@H]4C3)c2O)c(=O)c1=O)c1ccccc1 [Example 24] | 0.0032
15 | CC[C@@H](Nc1c(Nc2cccc(C(=O)N3CCN4CCOCC4C3)c2O)c(=O)c1=O)c1ccccc1 (some centres unmarked) [Example 35] | 0.016
16 | CC[C@@H](Nc1c(Nc2cccc(C(=O)N3CCN4C(=O)CCC4C3)c2O)c(=O)c1=O)c1ccc(C(F)(F)F)o1 (some centres unmarked) [Example 48] | 0.859
17 | CC[C@@H](Nc1c(Nc2cccc(C(=O)N3CCO[C@@H]4CN(C)C[C@H]43)c2O)c(=O)c1=O)c1ccccc1 [Example 43] | 0.011
18 | O=C(Nc1cccc(C(=O)N2CCN3C(=O)COC[C@@H]3C2)c1O)Nc1cccc(F)c1Cl [Example 19] | 0.05
19 | CC[C@@H](Nc1c(Nc2cccc(C(=O)N3CCN4CCNC(=O)C4C3)c2O)c(=O)c1=O)c1ccccc1 (some centres unmarked) [Example 49] | 0.926
20 | O=C1NCCC2C1CCN2C(=O)c1cccc(Nc2c(Nc3cccc(F)c3Cl)c(=O)c2=O)c1O (centres unmarked) [Example 55] | 0.617
21 | CC[C@@H](Nc1c(Nc2cccc(C(=O)N3CCN4C(=O)CCC4C3)c2O)c(=O)c1=O)c1ccccc1 (some centres unmarked) [Example 30] | 0.267
22 | CC[C@@H](Nc1c(Nc2cccc(C(=O)N3CCN4CCC[C@H]4C3)c2O)c(=O)c1=O)c1ccc(C(F)(F)F)o1 [Example 28] | 0.04
23 | CCC(Nc1c(Nc2cccc(C(=O)N3CCN4CCCC4C3)c2O)c(=O)c1=O)c1ccccc1 (centres unmarked) [Example 20] | 0.016
24 | CC[C@@H](Nc1c(Nc2cccc(C(=O)N3CCN4CCOC[C@H]4C3)c2O)c(=O)c1=O)c1ccccc1 [Example 46] | 0.051
25 | CC[C@@H](Nc1c(Nc2cccc(C(=O)N3CCC4(CC3)COCC(=O)N4)c2O)c(=O)c1=O)c1ccccc1 [Example 44] | 2.13
26 | O=C(Nc1ccccc1Br)Nc1cccc(C(=O)N2CCN3C(=O)CCC3C2)c1O (centres unmarked) [Example 12] | 0.119
27 | CC[C@@H](Nc1c(Nc2cccc(C(=O)N3CCC4(CCNC4=O)CC3)c2O)c(=O)c1=O)c1ccc(C)o1 [Example 50] | 1.85

Row | SMILES | IC50 [µM]
28 | O=C(c1cccc(Nc2c(Nc3cccc(F)c3Cl)c(=O)c2=O)c1O)N1CCN2CCOCC2C1 (centres unmarked) [Example 54] | 0.067
29 | CC[C@@H](Nc1c(Nc2cccc(C(=O)N3CCC4(CCNC4=O)CC3)c2O)c(=O)c1=O)c1ccccc1 [Example 34] | 0.126
30 | CC[C@@H](Nc1c(Nc2cccc(C(=O)N3CCN4CCC[C@H]4C3)c2O)c(=O)c1=O)c1ccc(C)o1 [Example 27] | 0.0001
31 | CC[C@@H](Nc1c(Nc2cccc(C(=O)N3CCN4C(=O)COC[C@@H]4C3)c2O)c(=O)c1=O)c1ccccc1 [Example 38] | 0.0034
32 | O=C(Nc1cccc(C(=O)N2CCN3CCCC3C2)c1O)Nc1cccc(Cl)c1Cl (centres unmarked) [Example 7] | 2.57
33 | CC[C@H](Nc1c(Nc2cccc(C(=O)N3CCN4CCC[C@H]4C3)c2O)c(=O)c1=O)c1ccccc1 [Example 25] | 1.35
34 | O=C(Nc1ccccc1Br)Nc1cccc(C(=O)N2CC(=O)N3CCCC3C2)c1O (centres unmarked) [Example 16] | 0.085
35 | CC[C@@H](Nc1c(Nc2cccc(C(=O)N3CC4OC(C)(C)C[C@@H]4[C@H]3C(=O)OC)c2O)c(=O)c1=O)c1ccccc1 (some centres unmarked) [Example 39] | 0.023
36 | CC[C@@H](Nc1c(Nc2cccc(C(=O)N3CC4OCCN(C)C4C3)c2O)c(=O)c1=O)c1ccccc1 (some centres unmarked) [Example 45] | 0.0033
37 | CC[C@H](Nc1c(Nc2cccc(C(=O)N3CCN4CCC[C@@H]4C3)c2O)c(=O)c1=O)c1ccccc1 [Example 23] | 2.74
38 | O=C(Nc1ccccc1Br)Nc1cccc(C(=O)N2CCN3CCC[C@H]3C2)c1O [Example 10] | 0.26
39 | O=C(Nc1ccccc1Br)Nc1cccc(C(=O)N2CCN3CCC[C@@H]3C2)c1O [Example 8] | 0.651
40 | O=C(c1cccc(Nc2c(Nc3cccc(F)c3Cl)c(=O)c2=O)c1O)N1CC(=O)N2CCCC2C1 (centres unmarked) [Example 56] | 0.865
41 | O=C(Nc1cccc(C(=O)N2CCN3CCOCC3C2)c1O)Nc1cccc(F)c1Cl (centres unmarked) [Example 17] | 0.0012
42 | O=C(c1cccc(Nc2c(Nc3cccc(F)c3Cl)c(=O)c2=O)c1O)N1CCC2(CCNC2=O)CC1 [Example 52] | 0.0062
43 | CC[C@@H](Nc1c(Nc2cccc(C(=O)N3CCN4CCC[C@H]4C3)c2O)c(=O)c1=O)c1ccccc1 [Example 26] | 0.0039
44 | CC[C@@H](Nc1c(Nc2cccc(C(=O)N3CC4OC(C)(C)C[C@@H]4[C@H]3CO)c2O)c(=O)c1=O)c1ccccc1 (some centres unmarked) [Example 40] | 0.034
45 | O=C(Nc1cccc(C(=O)N2CCN3CCC[C@H]3C2)c1O)Nc1cccc(F)c1Cl [Example 11] | 0.041
46 | O=C(c1cccc(Nc2c(Nc3cccc(F)c3Cl)c(=O)c2=O)c1O)N1CCN2CCCC2C1 (centres unmarked) [Example 21] | 0.008
47 | CC[C@@H](Nc1c(Nc2cccc(C(=O)N3CC(=O)N4CCCC4C3)c2O)c(=O)c1=O)c1ccccc1 (some centres unmarked) [Example 31] | 0.662
48 | CC[C@@H](Nc1c(Nc2cccc(C(=O)N3CCN4C(CCS4(=O)=O)C3)c2O)c(=O)c1=O)c1ccccc1 (some centres unmarked) [Example 47] | 0.818
49 | O=C(Nc1cccc(C(=O)N2CCN3C(=O)CCC3C2)c1O)Nc1cccc(F)c1Cl (centres unmarked) [Example 14] | 0.011
50 | O=C(Nc1cccc(C(=O)N2CCN3C(=O)COC[C@H]3C2)c1O)Nc1cccc(F)c1Cl [Example 18] | 0.011
51 | O=C(Nc1cccc(C(=O)N2CCN3CCC[C@@H]3C2)c1O)Nc1cccc(F)c1Cl [Example 9] | 0.022
52 | O=C(Nc1cccc(C(=O)N2CCC3(CCNC3=O)CC2)c1O)Nc1cccc(Cl)c1Cl [Example 3] | 0.634
53 | O=C(c1cccc(Nc2c(Nc3cccc(F)c3Cl)c(=O)c2=O)c1O)N1CCN2CCCCC2C1 (centres unmarked) [Example 51] | 0.247

From US8648118B2, “Bicyclic ring system substituted amide functionalised phenols as medicaments” (Boehringer Ingelheim International GmbH, priority 2010, dated 2014)
